The first experiment has as its system p-ERK in NCI-H441 cells (KRAS G12V mutation). The experiment in a line: Cell p-ERK assay (HTRF) in NCI-H441 cells. It is filed as cell-based, human. Conditions: Homo sapiens, NCI-H441, 3 h, NCI-H441 cells, 3 h compound incubation, HTRF p-ERK T202/Y204; read-out: H441 p-ERK IC50. How it is done:
AsPC-1 cells were purchased from ATCC, Cat. No. CRL-1682: NCI-H441 cells were purchased from ATCC, Cat. No. HTB-174: RPMI-1640 medium was purchased from Gibco, Cat. No. I1875-093: FBS was purchased from Gibco, Cat. No. 10099-141C: penicillin/streptomycin double-antibiotic solution (PS) was purchased from Gibco, Cat. No. 15140-122: trypsin (containing EDTA) was purchased from Gibco, Cat. No. 25200-072; DMSO was purchased from VWRAMRESCO, Cat. No. 0231-500ML; 96-well cell culture plates were purchased from Corning, Cat. No. 3599: white-bottomed, opaque 96-well plates were purchased from Cisbio, Cat. No. 66PL96025; Advance ERK phospho-T202/Y204 kit was purchased from Cisbio, Cat. No. 64AERPEH; cell counter was purchased from CHEMOMETEC, model: NC-200; microplate reader was purchased from PerkinElmer, model: EnVision.
AsPC-1, a human pancreatic cancer cell strain endogenously containing a KRAS^G12D mutation, was cultured in a complete medium containing RPMI-1640+10% FBS+1% PS. NCI-H441, a human non-small cell lung cancer cell strain endogenously containing a KRAS^G12V mutation, was cultured in a complete medium containing RPMI-1640+10% FBS+1% PS.
The cells were digested with trypsin (containing EDTA), collected in their corresponding complete media, and counted. The density of the cell suspensions was adjusted with their corresponding complete media, and 10000 AsPC-1 cells or 20000 NCI-H441 cells per well were seeded into a 96-well cell culture plate, with the volume of the medium in each well being 80 μL.
The cell culture plate was incubated in an incubator at 37° C. with 5% CO2 overnight. A series of 3.16-fold gradient dilutions of a 1000- compound stock solution were prepared with DMSO, and then diluted 200-fold with the complete medium described above to give 5′ compound stock solutions. On the day after cell seeding, 20 μL of the 5× compound stock solution was added to each cell culture well. As a result, the final concentration of the compound in the cell culture well became 1×, and the DMSO content in the well was 0.1%. In addition to the compound-treated wells described above, cell-containing DMSO control wells were also set. A complete medium containing 0.5% DMSO was added at 20 μL/well. After the mixture was well mixed, the culture plate was incubated in the incubator at 37° C. with 5% CO2 for another 3 h. The medium was then removed from the culture wells, and 50 μL of cell lysis buffer (from Advance ERK phospho-T202,Y204 kit) was added to each well. The mixture was well mixed and incubated for 30 min. Then, 16 μL of the mixture was transferred to a white-bottomed, opaque 96-well assay plate, and separately, 16 μL of cell lysis buffer was added to additional wells (serving as blank wells) in the assay plate. After the transfer was completed, 4 μL of p-ERK HTRF antibody mixture (from Advance ERK phospho-T202/Y204 kit) was added to each well of the assay plate, followed by a 4-hour incubation. The HTRF signal values (RLU) were then measured using a microplate reader, and the inhibition rate of the compound against p-ERK levels was calculated as follows: IR (%)=(RLUDMSO−RLUcompound)/(RLUDMSO−RLUblank)×100%, where RLUDMSO is the average HTRF signal value from the DMSO control well samples, RLUblank is the average HTRF signal value from the blank well samples, and RLUcompound is the HTRF signal value from the compound-treated well samples. Using an XLfit software, the IR (%) values were plotted against the logarithm of the compound concentrations, and the dose-response curves were fitted using the four-parameter method to calculate the IC50 values.
On the technique in general: TR-FRET usually uses a lanthanide donor and a delayed reading to cut background.
In general, IC50 refers to the concentration that gives 50% inhibition. For the compound `CCn1c(-c2cc(C#CCN3CCN(C(C)=O)CC3)cnc2[C@H](C)OC)c2c3cc(ccc31)-c1csc(n1)C[C@H](Nc1nnc3cc(C)ccn13)C(=O)N1CCC[C@H](N1)C(=O)OCC(C)(C)C2` (atropisomer, axis not shown; (Ra)) [Compound Z981], the IC50 turned out to be 2.17 nM.

As to `CCn1c(-c2cc(N3CCN(c4ccc(C)cc4)CC3)cnc2[C@H](C)OC)c2c3cc(ccc31)-c1csc(n1)C[C@H](NC(=O)[C@H]1[C@H](C)[C@@H]1C)C(=O)N1CCC[C@H](N1)C(=O)OCC1(CC1)C2` [Compound Z461, (1r,2R,3S)—N-((3′S,4′S,Z)-1′-ethyl-2′-(2-((S)-1-methoxyethyl)-5-(4-(p-tolyl)piperazin-1-yl)pyridin-3-yl)-5′,7′-dioxospiro[cyclopropane-1,10′-8-oxa-2(4,2)-thiazola-1(5,3)-indola-6(1,3)-pyridazinacycloundecaphan]-4′-yl)-2,3-dimethylcyclopropane-1-carboxamide], the IC50 is 93 nM.

In the case of `CCn1c(-c2cc(C#CCN3CCCOCC3)cnc2[C@H](C)OC)c2c3cc(ccc31)-c1csc(n1)C[C@H](NC(=O)CC(C)(C)C)C(=O)N1CCC[C@H](N1)C(=O)OCC(C)(C)C2` (atropisomer, axis not shown; (Ra)) [Compound Z798, N-((6^3S,4S,Z)—(Ra)-1^2-(5-(3-(1,4-oxazepan-4-yl)propyn-1-yl)-2-((S)-1-methoxyethyl)pyridin-3-yl)-1^1ethyl-10,10-dimethyl-5,7-dioxo-6^1,6^2,6^3,6^4,6^5,6^6-hexahydro-1^1H-8-oxa-2(4,2)-thiazola-1(5,3)-indola-6(1,3)-pyridazinacycloundecaphane-4-yl)-3,3-dimethylbutanamide], the IC50 was determined as 3.89 nM.

With `CCn1c(-c2cc(C#CCN3CCCOCC3)cnc2[C@H](C)OC)c2c3cc(ccc31)-c1csc(n1)C[C@H](NC(=O)[C@H]1[C@H](C)[C@@H]1C)C(=O)N1CCC[C@H](N1)C(=O)OCC(C)(C)C2` (atropisomer, axis not shown; (Sa)) [Compound Z547, (1r,2R,3S)—N-((6^3S,4S,Z)—(Sa)-1′-(5-(3-(1,4-oxazepan-4-yl)prop-1-yn-1-yl)-2-((S)-1-methoxyethyl)pyridin-3-yl)-1′-ethyl-10,10-dimethyl-5,7-dioxo-6^1,6^2,6^3,6^4,6^5,6^6-hexahydro-1^1H-8-oxa-2(4,2)-thiazola-1(5,3)-indola-6(1,3)-pyridazinacycloundecaphane-4-yl)-2,3-dimethylcyclopropane-1-carboxamide], the IC50 was 78.1 nM.

In the case of `CCn1c(-c2cc(C3(C(=O)N4CCN(C)CC4)CC3)cnc2[C@H](C)OC)c2c3cc(ccc31)-c1csc(n1)C[C@H](NC(=O)[C@H]1[C@H](C)[C@@H]1C)C(=O)N1CCC[C@H](N1)C(=O)OCC1(CC1)C2` [Compound Z347, (1r,2R,3b)-N-((3′S,4′S,Z)-1′-ethyl-2′-(2-(1-methoxyethyl)-5-(1-(4-methylpiperazine-1-carbonyl)cyclopropyl)pyridin-3-yl)-5′,7′-dioxospiro[cyclopropane-1,10′-8-oxa-2(4,2)-thiazola-1(5,3)-indola-6(1,3)-pyridazinacycloundecaphan]-4-yl)-2,3-dimethylcyclopropane-1-carboxamide], the IC50 is 152 nM.

In the case of `CCn1c(-c2cc(N3CCN(CCS(C)(=O)=O)CC3)cnc2[C@H](C)OC)c2c3cc(ccc31)-c1csc(n1)C[C@H](NC(=O)[C@H]1[C@H](C)[C@@H]1C)C(=O)N1CCC[C@H](N1)C(=O)OCC1(CC1)C2` (atropisomer, axis not shown; (Sa)) [Compound Z377, (1r,2R,3S)—N-((3′S,4′S,Z)-1′-ethyl-(Sa)-2′-(2-((S)-1-methoxyethyl)-5-(4-(2-(methylsulfonyl)ethyl)piperazin-1-yl)pyridin-3-yl)-5′,7′-dioxospiro[cyclopropane-1,10′-8-oxa-2(4,2)-thiazola-1(5,3)-indola-6(1,3)-pyridazinacycloundecaphan]-4′-yl)-2,3-dimethylcyclopropane-1-carboxamide], the IC50 amounted to 87.8 nM.

As to `CCn1c(-c2cc(C#CCN3CCCOCC3)cnc2[C@H](C)OC)c2c3cc(ccc31)-c1csc(n1)C[C@H](NC(=O)[C@H](C(C)C)N(C)S(C)(=O)=NC)C(=O)N1CCC[C@H](N1)C(=O)OCC(C)(C)C2` (mixture of isomers) [Compound Z912, (2S)—N-((6^3S,4S,Z)-1^2-(5-(3-(1,4-oxazepan-4-yl)prop-1-yn-1-yl)-2-((5)-1-methoxyethyl)pyridin-3-yl)-1^1-ethyl-10,10-dimethyl-5,7-dioxo-6^1,6^2,6^3,6^4,6^5,6^6-hexahydro-1^1H-8-oxa-2(4.2)-thiazola-1(5,3)-indola-6(1,3)-pyridazinacycloundecaphane-4-yl)-2-(N,N-dimethylmethylsulfonimidoyl)-3-methylbutanamide], the IC50 amounted to 1.83 nM.

For the compound `CCn1c(-c2cc(C#CCN3CCN(C)S(=O)(=O)CC3)cnc2[C@H](C)OC)c2c3cc(ccc31)-c1csc(n1)C[C@H](Nc1nnc3cc(C)ccn13)C(=O)N1CCC[C@H](N1)C(=O)OCC(C)(C)C2` (atropisomer, axis not shown; (Ra)) [Compound Z1027, (6^3S,4S,Z)-1^1-ethyl-1^2-(Ra)-(2-((S)-1-methoxyethyl)-5-(3-(2-methyl-1,1-dioxido-1,2,5-thiadiazepan-5-yl)prop-1-yn-1-yl)pyridin-3-yl)-10,10-dimethyl-4-((7-methyl-[1,2,4]triazolo[4,3-a]pyridin-3-yl)amino)-6^1,6^2,6^3,6^4,6^5,6^6-hexahydro-1^1H-8-oxa-2(4,2)-thiazola-1(5,3)-indola-6(1,3)-pyridazinacycloundecaphane-5,7-dione], the IC50 worked out at 1.54 nM.

The same experiment, now with this note: NCI-H441 cells, 3 h compound incubation, HTRF p-ERK T202/Y204; read-out: H441 p-ERK IC50.
Take `CCn1c(-c2cc(C#CCN3CC4CCC(C3)N4C(C)=O)cnc2[C@H](C)OC)c2c3cc(ccc31)-c1csc(n1)C[C@H](Nc1nnc3cc(C)ccn13)C(=O)N1CCC[C@H](N1)C(=O)OCC(C)(C)C2` (atropisomer, axis not shown; (Ra)) [Compound Z1014, (6^3S,4S,Z)-1^2-(5-(3-(8-acetyl-3,8-diazabicyclo[3.2.1]octan-3-yl)prop-1-yn-1-yl)-(Ra)-2-((S)-1-methoxyethyl)pyridin-3-yl)-1^1-ethyl-10,10-dimethyl-4-((7-methyl-[1,2,4]triazolo[4,3-a]pyridin-3-yl)amino)-6^1,6^2,6^3,6^4,6^5,6^6-hexahydro-1^1H-8-oxa-2(4,2)-thiazola-1(5,3)-indola-6(1,3)-pyridazinacycloundecaphane-5,7-dione]: the IC50 worked out at 3.35 nM.

In the case of `CCn1c(-c2cc(C#CCN3CCCOCC3)cnc2[C@H](C)OC)c2c3cc(ccc31)-c1csc(n1)C[C@H](Nc1nnc3cc(Br)ccn13)C(=O)N1CCC[C@H](N1)C(=O)OCC(C)(C)C2` [Compound Z960, (6-S,4S,Z)—(R4)-1^2-(5-(3-(1,4-oxazepan-4-yl)prop-1-yn-1-yl)-2-((S)-1-methoxyethyl)pyridin-3-yl)-4-((7-bromo-[1,2,4]triazolo[4,3-a]pyridin-3-yl)amino)-1^1-ethyl-10,10-dimethyl-6^1,6^2,6^3,6^4,6^5,6^6-hexahydro-1^1H-8-oxa-2(4,2)-thiazola-1(5,3)-indola-6(1,3)-pyridazinacycloundecaphane-5,7-dione], the IC50 stood at 5.46 nM.
